Measured values reported in patent US20260092083A1, “VANCOMYCIN DERIVATIVES WITH SIDEROPHORE MODIFICATION AS NOVEL REPURPOSED ANTIBIOTICS TO COMBAT GRAM-NEGATIVE BACTERIAL INFECTION” (priority 2023, published 2026).
≈ marks a conversion by molar mass, not a printed value.

Assays:
Format in all cases: cell-based
E. coli (tolC) JW5503-1 = assay: Broth microdilution MIC, E. coli efflux-deficient (tolC); conditions: Escherichia coli, read-out: MIC (μg/mL) Gram-negative EC Efflux
Protocol: (§1) The test compounds including vancomycin hydrochloride were supplied as a 6.4 mg/mL solution in 100% dimethyl sulfoxide (DMSO) aliquoted into individual wells of a 96-well plate (50 μL per well). […] Standardized inocula were added to the MIC test plates, which were incubated for the prescribed times at 35° C. The N. gonorrhoeae strain was incubated in an atmosphere containing 5% CO2.
(§2) The final optical density of each well at 600 nm was measured using a Tecan Spark plate reader. The compound concentration versus OD600 data were then curve fit using custom software. An MIC value was defined as the lowest compound concentration that led to an OD600 value≤0.15 for the E. coli, K. pneumoniae, P. aeruginosa, A. baumannii, or S. aureus strains. For the N. gonorrhoeae strain, an OD600 value≤0.19 was used as a cutoff to define an MIC value; this higher cut-off value was required because the N. gonorrhoeae MIC plates were covered with plastic seals that increased the background OD600 value.
(§3) JMI Laboratories followed current CLSI quality assurance practices when performing the susceptibility tests. MIC values were validated by concurrently testing the CLSI-recommended ATCC QC reference strains S. aureus ATCC 29213 and K. pneumoniae ATCC 700603. The inoculum density during susceptibility testing was monitored by bacterial colony counts. Where applicable, QC ranges for tested reference strains were those ranges approved or published by CLSI for testing in CAMHB. […] Importantly, the CLSI reference method for testing N. gonorrhoeae is the agar dilution MIC method, which was not used here. Thus, CLSI MIC QC ranges for N. gonorrhoeae could not be applied to the antimicrobials studied here.
(§4) Abbreviations: EC, E. coli (wild-type) BW25113; EC efflux^−, E. coli (tolC) JW5503-1; KPN, K. pneumoniae ATCC 700603; PSA, P. aeruginosa PAO1; PSA efflux^−, P. aeruginosa (multi-pump-gene mutant) PAM1626; ACB, A. baumannii JMI #1186154; GC, N. gonorrhoeae WHO-Z; SA, S. aureus ATCC 29213. Broth microdilution MIC values were measured in iron-depleted CAMHB for all strains except for GC, which was tested in fastidious broth.

S. aureus ATCC 29213 = assay: Broth microdilution MIC, S. aureus; conditions: Staphylococcus aureus, ATCC29213, iron-depleted CAMHB, OD600 ≤0.15, read-out: MIC (μg/mL) Gram positive SA
Protocol: as §1, §2, §3, §4

[1] = tested on: E. coli (wild-type) BW25113; assay: Broth microdilution MIC, E. coli wild-type; conditions: Escherichia coli, iron-depleted CAMHB, OD600 ≤0.15, read-out: MIC (μg/mL) Gram-negative EC
Protocol: as §1, §2, §3, §4

[2] = tested on: K. pneumoniae ATCC 700603; assay: Broth microdilution MIC, K. pneumoniae; conditions: Klebsiella pneumoniae, ATCC700603, read-out: MIC (μg/mL) Gram-negative KPN
Protocol: as §1, §2, §3, §4

[3] = tested on: A. baumannii JMI #1186154; assay: Broth microdilution MIC, A. baumannii; conditions: Acinetobacter baumannii, iron-depleted CAMHB, OD600 ≤0.15, read-out: MIC (μg/mL) Gram-negative ACB
Protocol: as §1, §2, §3, §4

N. gonorrhoeae WHO-Z = assay: Broth microdilution MIC, N. gonorrhoeae; conditions: Neisseria gonorrhoeae, read-out: MIC (μg/mL) Gram-negative GC
Protocol: as §1, §2, §3, §4

[4] = tested on: P. aeruginosa (multi-pump-gene mutant) PAM1626; assay: Broth microdilution MIC, P. aeruginosa efflux-deficient; conditions: Pseudomonas aeruginosa, read-out: MIC (μg/mL) Gram-negative PSA Efflux
Protocol: as §1, §2, §3, §4

P. aeruginosa PAO1 = assay: Broth microdilution MIC, P. aeruginosa; conditions: Pseudomonas aeruginosa, iron-depleted CAMHB, OD600 ≤0.15, read-out: MIC (μg/mL) Gram-negative PSA
Protocol: as §1, §2, §3, §4

Row | SMILES | MIC (E. coli (tolC) JW5503-1) [µg/mL] | MIC (S. aureus ATCC 29213) [µg/mL] | MIC [1] [µg/mL] | MIC [2] [µg/mL] | MIC [3] [µg/mL] | MIC (N. gonorrhoeae WHO-Z) [µg/mL] | MIC [4] [µg/mL] | MIC (P. aeruginosa PAO1) [µg/mL]
1 | CNC(CC(C)C)C(=O)NC1C(=O)NC(CC(N)=O)C(=O)NC2C(=O)NC3C(=O)NC(C(=O)N[C@H](C(=O)NCCCCNC(=O)c4cc(=O)c(O)c[nH]4)c4cc(O)cc(O)c4-c4cc3ccc4O)C(O)c3ccc(c(Cl)c3)Oc3cc2cc(c3OC2OC(CO)C(O)C(O)C2OC2CC(C)(N)C(O)C(C)O2)Oc2ccc(cc2Cl)C1O (stereo in doubt) [Compound 21] | 64 (≈ 38.6 µM) | 32 (≈ 19.3 µM) | 32 (≈ 19.3 µM) | > 64 | 32 (≈ 19.3 µM) | > 64 | > 64 | 64 (≈ 38.6 µM)
2 | CNC(CC(C)C)C(=O)NC1C(=O)NC(CC(N)=O)C(=O)NC2C(=O)NC3C(=O)NC(C(=O)N[C@H](C(=O)NCCCN4C(=O)c5cc(O)c(O)cc5C4=O)c4cc(O)cc(O)c4-c4cc3ccc4O)C(O)c3ccc(c(Cl)c3)Oc3cc2cc(c3OC2OC(CO)C(O)C(O)C2OC2CC(C)(N)C(O)C(C)O2)Oc2ccc(cc2Cl)C1O (stereo partly drawn) [Compound 1] | 64 (≈ 38.4 µM) | 8 (≈ 4.8 µM) | 64 (≈ 38.4 µM) | > 64 | 32 (≈ 19.2 µM) | > 64 | > 64 | > 64
3 | CN[C@H](CC(C)C)C(=O)N[C@H]1C(=O)N[C@@H](CC(N)=O)C(=O)N[C@H]2C(=O)N[C@H]3C(=O)N[C@H](C(=O)N[C@H](C(=O)NCCCCN4C(=O)c5cc(O)c(O)cc5C4=O)c4cc(O)cc(O)c4-c4cc3ccc4O)[C@H](O)c3ccc(c(Cl)c3)Oc3cc2cc(c3O[C@@H]2O[C@H](CO)C(O)C(O)[C@H]2O[C@H]2CC(C)(N)[C@H](O)[C@H](C)O2)Oc2ccc(cc2Cl)[C@H]1O (stereo partly drawn) [Compound 2] | 32 (≈ 19 µM) | 8 (≈ 4.76 µM) | 32 (≈ 19 µM) | > 64 | 32 (≈ 19 µM) | > 64 | > 64 | > 64
4 | CN[C@H](CC(C)C)C(=O)N[C@H]1C(=O)N[C@@H](CC(N)=O)C(=O)N[C@H]2C(=O)N[C@H]3C(=O)N[C@H](C(=O)N[C@H](C(=O)NCCCNC(=O)c4ccc(O)c(O)c4Cl)c4cc(O)cc(O)c4-c4cc3ccc4O)[C@H](O)c3ccc(c(Cl)c3)Oc3cc2cc(c3O[C@@H]2O[C@H](CO)C(O)C(O)[C@H]2O[C@H]2CC(C)(N)[C@H](O)[C@H](C)O2)Oc2ccc(cc2Cl)[C@H]1O (stereo partly drawn) [Compound 4] | > 64 | 2 (≈ 1.19 µM) | 8 (≈ 4.77 µM) | > 64 | 1 (≈ 0.597 µM) | > 64 | > 64 | > 64
5 | CN[C@H](CC(C)C)C(=O)N[C@H]1C(=O)N[C@@H](CC(N)=O)C(=O)N[C@H]2C(=O)N[C@H]3C(=O)N[C@H](C(=O)N[C@H](C(=O)NCCCCNC(=O)c4ccc(O)c(O)c4Cl)c4cc(O)cc(O)c4-c4cc3ccc4O)[C@H](O)c3ccc(c(Cl)c3)Oc3cc2cc(c3O[C@@H]2O[C@H](CO)C(O)C(O)[C@H]2O[C@H]2CC(C)(N)[C@H](O)[C@H](C)O2)Oc2ccc(cc2Cl)[C@H]1O (stereo partly drawn) [Compound 5] | > 64 | 4 (≈ 2.37 µM) | 8 (≈ 4.73 µM) | > 64 | 1 (≈ 0.592 µM) | > 64 | > 64 | > 64
6 | CN[C@H](CC(C)C)C(=O)N[C@H]1C(=O)N[C@@H](CC(N)=O)C(=O)N[C@H]2C(=O)N[C@H]3C(=O)N[C@H](C(=O)N[C@H](C(=O)NCCCCCNC(=O)c4ccc(O)c(O)c4Cl)c4cc(O)cc(O)c4-c4cc3ccc4O)[C@H](O)c3ccc(c(Cl)c3)Oc3cc2cc(c3O[C@@H]2O[C@H](CO)C(O)C(O)[C@H]2O[C@H]2CC(C)(N)[C@H](O)[C@H](C)O2)Oc2ccc(cc2Cl)[C@H]1O (stereo partly drawn) [Compound 6] | > 64 | 4 (≈ 2.35 µM) | 64 (≈ 37.6 µM) | > 64 | 4 (≈ 2.35 µM) | > 64 | > 64 | > 64
